Assay results reported in patent US12187672B2, “1,2-diacylglycerol compound, preparation method therefor, and immunomodulator containing same as active ingredient” (ENZYCHEM LIFESCIENCES CORPORATION, priority 2018, dated 2025).

Legend:
[1] = test system: STAT3; assay: IL-6-induced STAT3 activity, SEAP expression in HEK-Blue IL-6 cells; assay type: cell-based
Experimental: HEK-Blue™ IL-6 cells were used to confirm STAT3 activity by STAT3-induced SEAP (secreted embryonic alkaline phosphatase) expression. In DMEM (Hyclone, Thermo Scientific) medium to which 10% Fetal Bovine Serum was added, HEK-Blue™ IL-6 cells were cultured at a concentration of 1×10^5 cells/ml, and maintained in a 5% CO2 humidified incubator at 37° C. The cultured HEK-Blue™ IL-6 cells were inoculated by 1×10^5 cells/ml. Then, the culture solution was treated with a glycerol derivative compounds of the type shown in Table 4 below for 1 hour and then IL-6 (5 ng/ml) was further incubated for 24 hours for STAT3 activity. Thereafter, the culture supernatant was collected for each well and centrifuged (at 3000 rpm, 5 minutes) to recover the supernatant. The SEAP expression level in the recovered supernatant was mixed with Quanti blue reagent and the supernatant at a ratio of 1:10 and left at 37° C. for about 30 minutes. Then, the SEAP concentration was confirmed at 650 nm wavelength using a spectrophotometer, and the results (STAT3 activity inhibitory ability) thereof are shown in Table 4 and FIG. 3 below.

[2] = test system: STAT3; assay: STAT3 activity, pGL4.47 SIE luciferase reporter in LPS-treated RAW264.7 cells; assay type: cell-based, mouse; settings: sample 100 μg/ml 1 h, then LPS 1 μg/ml 18 h
Experimental: pGL4.47 [luc2P/SIE/Hygro] vector containing the sis-Inducible Element that binds to STAT3 was injected into RAW264.7 cells to confirm the degree of STAT3 activity. In DMEM (Hyclone, Thermo Scientific) medium to which 10% Fetal Bovine Serum was added, RAW264.7 cells were cultured at a concentration of 1×10^5 cells/ml, and maintained in a 5% CO2 humidified incubator at 37° C. The cultured RAW264.7 cells were inoculated into a 48 well plate by 1×10^5 cells/ml and stabilized for 18 hours. Thereafter, the pGL4.47 [luc2P/SIE/Hygro] vector containing sis-Inducible Element was mixed with Attractene to induce complex formation at room temperature for 15 minutes. This complex was treated with the cells and then further incubated for 18 hours. Thereafter, the culture solution was treated with a glycerol derivative compounds of the type shown in Table 5 below for 1 hour and then LPS (1 μg/ml) was treated and further incubated for 18 hours for STAT3 activity. Thereafter, the culture supernatant was removed for each well, and the remaining cells were lysed with a cell lysis buffer, and then cell lysate was recovered. 90 μl of luciferase reagent was mixed with 10 μl of the recovered cell lysate, and the degree of fluorescence was confirmed using a luminometer.

[3] = test system: STAT6; assay: IL-4-induced STAT6 activity, pGL4-STAT6 luciferase reporter in A549 cells; assay type: cell-based
Experimental: In DMEM (Dulbecco Modified Eagle Medium, Hyclone, Thermo Scientific) medium to which 10% Fetal Bovine Serum was added, A549 cells were subcultured at a concentration of 1×10^5 cells/ml, and culture was conducted in a 5% CO2 humidified incubator at 37° C. The cultured A549 cells were inoculated into a 48 well plate by 1×10^5 cells/ml and stabilized for 18 hours. Thereafter, pGL4-STAT6 reporter vector containing a STAT6 binding promoter portion was mixed with Attractene to induce complex formation at room temperature for 15 minutes. This complex was treated with the cells and then further incubated for 24 hours. Thereafter, the culture solution was treated with a glycerol derivative compounds of the type shown in Table 9 and 10 below for 1 hour, and then IL-4 (2 ng/ml or 10 ng/ml) was further incubated for 20 hours for STAT6 activity. Thereafter, the culture supernatant was removed for each well, and the remaining cells were lysed with a cell lysis buffer, and then cell lysate was recovered. 90 μl of luciferase reagent was mixed with 10 μl of the recovered cell lysate, and the degree of fluorescence was confirmed using a luminometer. The results are shown in Table 9, Table 10, FIG. 9 and FIG. 10 below.

[4] = test system: IL-6; assay: LPS-induced IL-6 secretion reduction in RAW264.7 cells (ELISA); assay type: cell-based, mouse; settings: sample 100 μg/ml 1 h, then LPS 1 μg/ml 24 h, Table 3
Experimental: In DMEM (Dulbecco Modified Eagle Medium, Hyclone, Thermo Scientific) medium to which 10% Fetal Bovine Serum was added, RAW264.7 cells, a mouse macrophage family, were suspended at a concentration of 1×10^5 cells/ml, and culture was conducted in a 5% CO2 humidified incubator at 37° C. The cultured RAW264.7 cells were inoculated into a 48 well plate by 5×10^4 cells/ml and stabilized for 15 hours. Then, the culture solution was treated with a glycerol derivative compounds of the type shown in Table 2 and 3 below for 1 hour and then was treated with 1 μg/ml of Lipopolysaccaride (LPS) of a cell stimulator, and subsequent further incubation was conducted for 24 hours. Thereafter 0.5 ml of the culture supernatant was collected for each well and centrifuged (at 3000 rpm, 5 minutes) to recover the supernatant. The IL-6 level in the recovered supernatant was measured according to the manual provided by the Mouse IL-6 ELISA set (BD Biosciences). The day before ELISA was carried out, the IL-6 capture antibody was diluted in phosphate buffered saline, coated on a microwell, and then stored at 4° C. overnight. Each well was washed three times with a buffer solution and then blocked with 2% Bovine Serum Albumin (BSA) for 1 hour at room temperature. After washing with buffer solution three times, […] of sample was dispensed into each well and left at room temperature for 2 hours. Detection antibody which was washed 3 times with washing buffer solution and diluted was dispensed into each well and allowed to react at room temperature for 1 hour and left at room temperature for 1 hour. Thereafter, the secondary HRP conjugated antibody was reacted at room temperature for 30 minutes, washed three times with a buffer solution, and treated with 50 μl of stop solution for each well, and then the optical density was measured at 450 nm with an ELISA microplate leader. The results of the IL-6 expression reduction rate (IL-6 concentration) are shown in Table 2, Table 3, FIG. 1 and FIG. 2 below.

[5] = test system: IL-4; assay: PKC activator-induced IL-4 secretion reduction in EL-4 cells (ELISA); assay type: cell-based, mouse; settings: sample 100 μg/ml 2 h, then PKC activator 18 h, Table 12
Experimental: In DMEM (Dulbecco Modified Eagle Medium, Hyclone, Thermo Scientific) medium to which 10% Fetal Bovine Serum was added, EL-4 cells, a mouse lymphoma family, were subcultured at a concentration of 1×10^5 cells/ml, and culture was conducted in a 5% CO2 humidified incubator at 37° C. The cultured EL-4 cells were inoculated into a 48 well plate by 5×10^4 cells/ml and stabilized for 30 hours. Then, the culture solution was treated with a glycerol derivative compounds of the type shown in Table 11 and 12 below for 2 hours. Thereafter, it were treated with 0.5 μg/ml of PKC activator (p10, some kind of PMA) of a cell stimulator, and subsequent further incubation were conducted for 18 hours. Thereafter 0.5 ml of the culture supernatant was collected for each well and centrifuged (at 3000 rpm, 5 minutes) to recover the supernatant. The IL-4 level in the recovered supernatant was measured according to the manual provided by the Mouse IL-4 ELISA set (BD Biosciences). The day before ELISA was carried out, the IL-4 capture antibody was diluted in phosphate buffered saline, coated on a microwell, and then stored at 4° C. overnight. Each well was washed three times with a buffer solution and then blocked with 2% Bovine Serum Albumin (BSA) for 1 hour at room temperature. After washing with buffer solution three times, 100 μl of sample was dispensed into each well and left at room temperature for 2 hours. Detection antibody which was washed 3 times with washing buffer solution and diluted was dispensed into each well and allowed to react at room temperature for 1 hour and left at room temperature for 1 hour. Thereafter, the secondary HRP conjugated antibody was reacted at room temperature for 30 minutes, washed three times with buffer solution, and treated with 50 μl of stop solution for each well, and then the optical density was measured at 450 nm with an ELISA microplate leader. The results of the measured expression reduction rate ([…]) were shown in Table 11, Table 12, FIG. 11 and FIG. 12 below.

[6] = test system: HL-60 cells; assay: Migration of HL-60 cell line toward THP-1 culture supernatant (transmigration assay); assay type: cell-based, human
Experimental: In RPMI (Hyclone, Thermo Scientific) medium to which 10% Fetal Bovine Serum was added, THP-1 cells, a human macrophage family, were subcultured at a concentration of 1×10^5 cells/ml, and culture was conducted in a 5% CO2 humidified incubator at 37° C. In order to prepare the THP-1 cell culture solution to be treated in the lower well during the transmigration assay, first, the cultured THP-1 cells were inoculated into a 12 well plate by 1×10^6 cells/ml and stabilized for 30 minutes. Then, the culture solution was treated with a glycerol derivative compounds of the type shown in Table 7 below for 1 hour and then was treated with Gemcitabine (2 μg/ml) of a cell stimulator, and subsequent further incubation was conducted for 24 hours. Thereafter 1.5 ml of the culture supernatant was collected for each well and centrifuged (at 3000 rpm, 5 minutes) to recover the supernatant. The CXCL8 (IL-8) level in the recovered supernatant was measured according to the manual provided by Cultrex 96 well Laminin Cell Invasion assay. The day before Transmigration assay was carried out, a 1× Lamin I solution was treated in the upper Invasion Chamber and coated. Thereafter, in RPMI (Hyclone, Thermo Scientific) medium to which 10% Fetal Bovine Serum was added, the cultured HL-60 cells were despensed of 5×10^4 cells/chamber, and 150 μl of the THP-1 culture supernatant prepared in advance was added to the lower chamber. Thereafter the upper chamber was removed, and the cells were attached to the bottom of the lower chamber by a centrifuge, and then the supernatant was removed. Cell dissociation/Calcein-AM solution was added and reacted for 1 hour. Then, the value obtained using a fluorescence spectroscopy was calculated by converting the number of cells.

[7] = test system: CXCL8 (IL-8); assay: CXCL8 (IL-8) expression reduction in Gemcitabine-treated THP-1 cells (ELISA); assay type: cell-based, human; settings: for CXCL8 [IL-8] concentration (average ± deviation): THP-1 cells
Experimental: In RPMI (Hyclone, Thermo Scientific) medium to which 10% Fetal Bovine Serum was added, THP-1 cells, a human macrophage family, were suspended at a concentration of 1×10^5 cells/ml, and culture was conducted in a 5% CO2 humidified incubator at 37° C. The cultured THP-1 cells were inoculated into a 12 well plate by 1×10^6 cells/ml and stabilized for 30 minutes. Then, the culture solution was treated with a glycerol derivative compounds of the type shown in Table 6 below for 1 hour and then was treated with Gemcitabine (2 μg/ml) of a cell stimulator, and subsequent further incubation was conducted for 24 hours. Thereafter 1.5 ml of the culture supernatant was collected for each well and centrifuged (at 3000 rpm, 5 minutes) to recover the supernatant. The CXCL8 (IL-8) level in the recovered supernatant was measured according to the manual provided by the human IL-8 ELISA set (BD Biosciences). The day before ELISA was carried out, the IL-8 capture antibody was diluted in phosphate buffered saline, coated on a microwell, and then stored at 4° C. overnight. Each well was washed three times with a buffer solution and then blocked with 2% Bovine Serum Albumin (BSA) for 1 hour at room temperature. After washing with washing buffer solution three times, 100 μl of sample was dispensed into each well and left at room temperature for 2 hours. Detection antibody which was washed 3 times with washing buffer and diluted was dispensed into each well and allowed to react at room temperature for 1 hour and left at room temperature for 1 hour. Thereafter, the secondary HRP conjugated antibody was reacted at room temperature for 30 minutes, washed three times with a washing buffer, and treated with 50 μl of stop solution for each well, and then the optical density was measured at 450 nm with an ELISA microplate leader.

[8] = sample 100 μg/ml 1 h, then IL-4 (10 ng/ml) 20 h, Table 10
[9] = THP-1 cells treated with Gemcitabine

Molecule | STAT3 activity_Luciferase activity (average ± deviation) [2] | STAT6 activity_Luciferase activity (average ± deviation) [3, 8] | IL-6 concentration (average ± deviation) [4] [pg/µL] | IL-4 concentration (average ± deviation) [5] [pg/µL] | also measured
IL-6: IL-6 cytokine used to induce STAT3 activity [reference compound] | – | – | – | – | increase of STAT3 activity compared to the negative control group ([1]; HEK-Blue IL-6 cells treated with IL-6): about 2.3 times; STAT3 activity_SEAP expression(%) (average ± deviation) ([1]; HEK-Blue IL-6 cells, IL-6 5 ng/ml alone, negative control = 100): 228.8 ± 17.0%
CCCCC/C=C\C/C=C\CCCCCCCC(=O)OC(COC(=O)CCCCCCCCCCC)COC(=O)C(C)C (stereo not drawn) [EC_A94] | 640 ± 275.7 | 14677.5 ± 2168.7 | 0.702 ± 0.079 | 523.8 ± 62.3 | –
CCCCC/C=C\C/C=C\CCCCCCCC(=O)OC(COC(=O)CCCCCCCC)COC(=O)CCCCCCCCCCCCCCC (stereo not drawn) [EC_A84] | 780 ± 27.5 | – | 0.799 ± 0.025 | 615.6 ± 25.0 | Number of HL-60 cells migrated through Transwell ([6]; supernatant of THP-1 cells treated with sample 100 μg/ml 1 h, then Gemcitabine 2 μg/ml 24 h): 2197.8 Cell Number; CXCL8 [IL-8] concentration (average ± deviation) ([7]; sample 100 μg/ml 1 h, then Gemcitabine 2 μg/ml 24 h): 110.5 ± 6.8 pg/µL
Nc1ccn([C@@H]2O[C@H](CO)[C@@H](O)C2(F)F)c(=O)n1 [Gemcitabine, reference compound] | – | – | – | – | increase of neutrophil cell migration compared to the negative control group [6, 9]: about twice; Number of HL-60 cells migrated through Transwell ([6]; supernatant of THP-1 cells treated with Gemcitabine 2 μg/ml alone): 5022.9 Cell Number; increase of CXCL8 (IL-8) secretion compared to the negative control group [7, 9]: about 13 times; CXCL8 [IL-8] concentration (average ± deviation) ([7]; Gemcitabine 2 μg/ml alone): 104.6 ± 1.5 pg/µL
CCCCC/C=C\C/C=C\CCCCCCCC(=O)OC(COC(=O)CCCCCCCCCCC)COC(=O)C(C)(C)C (stereo not drawn) [EC_A95] | 663 ± 61.5 | 13649.0 ± 7369.3 | 0.777 ± 0.020 | 680.1 ± 12.2 | –
IL-4: IL-4 used to induce STAT6 activity in A549 cells (protein, UniProt P05112 25-153, looked up) Interleukin-4: HKCDITLQEIIKTLNSLTEQKTLCTELTVTDIFAASKNTTEKETFCRAATVLRQFYSHHEKDTRCLGATAQQFHRHKQLIRFLKRLDRNLWGLAGLNSCPVKEANQSTLENFLERLKTIMREKYSKCSS | – | – | – | – | STAT6 activity_Luciferase activity (average ± deviation) ([3]; IL-4 alone, concentration printed 2 (head μg/ml; method 2 ng/ml), Table 9): 982.0 ± 38.7; STAT6 activity_Luciferase activity (average ± deviation) ([3]; IL-4 alone, concentration printed 10 (head μg/ml; method 10 ng/ml), Table 10): 22846.2 ± 2157.3
